Patent US11547651B2, “Ecofriendly biofilm-disrupting antimicrobial formulations, their development, and their uses” (Alira Health Boston LLC, priority 2017, dated 2023)
Read-outs that look alike come from different tables or passages of the source.

Experiments:
[1] = test system: oral care and wound care pathogens; conditions: background statement, organism not given; cited from earlier work
[2] = test system: mice; conditions: cited from earlier work
[3] = test system: aquatic and terrestrial organisms; conditions: cited from earlier work
[4] = test system: common oral care and wound care pathogens; assay: In vitro broad spectrum comparison against common oral care and wound care pathogens, silver as positive control; format: cell-based; conditions: for broad spectrum antimicrobial activity compared with silver: in vitro, common oral care and wound care pathogens
Procedure: The MIC of the antimicrobials was from literature review as well as in vitro studies in our lab with the five major oral care and five major wound care pathogens. In the literature typically only one bacteria was tested, thus, it was difficult to ascertain whether the target was a broad spectrum antimicrobial. Oral care pathogens tested include: Fusobacterium nucleatum ss vincentii, Porphyromonas gingivalis, Prevotella intermedia, Aggregatibacter actinomycetemcomitans and Streptococcus mutans. Wound care pathogens included: Pseudomonas aeruginosa, Streptococcus pyogenes, Staphylococcus aureus, Enterococcus faecalis, and Proteus mirabilis. For the JMP® SAS analysis the antimicrobial scoring was based on the MIC in μg/ml using the following point scale: 5) 1-10 μg/ml, 4) 11-25 μg/ml, 3) 26-50 μg/ml, 2) 51-100 μg/ml, 1) >101, and ND for not determined.
In order to directly compare the top potential Ecofriendly antimicrobial candidates from the JMP SAS multivariate analysis described above, we examined how some of these compounds (aloesin, zinc pyrithione, cinnamon, lemongrass, manuka honey, peppermint, jojoba oil) performed against common oral care and wound care pathogens, using silver as a positive control. […] Zinc pyrithione is commonly used as an antibacterial and antifungal, is safe for human use, and is a common ingredient in dandruff shampoo.

[5] = test system: aquatic and terrestrial organisms; assay: Eco-friendliness from ECOTOX database records; conditions: point scale 5 to 1 from number of ECOTOX references
From the text: Eco-friendliness ratings were based on the number of references from the ECOTOX database. The scoring used the following point scale: 5) no toxicity to aquatic and terrestrial organisms, 4) 1-10 result records, 3) 11-25, 2) 26-50, 1) >51, and ND for not determined. Commonly used compounds such as Triclosan and silver were given an unacceptable Ecofriendly score of 1.

[6] = US EPA ecotoxicology database, aquatic environment

Compound | microbial inhibitory concentration (MIC) [1] | LD50 [2] | number of records/references in the ECOTOX database [3, 6] | broad spectrum antimicrobial activity compared with silver [4] | log reduction of most bacterial pathogens ([4]; planktonic bacterial and bacterial biofilms) | number of records/references in the ECOTOX database [3] | Ecofriendly (ecotoxicology) score [5]
Oc1cc(Cl)ccc1Oc1ccc(Cl)cc1Cl [Triclosan, 5-Chloro-2-(2,4-dichlorophenoxy)phenol] | 125 µg/mL | 1.5 mg/day | 513 |  |  |  | 
CC(=O)Cc1cc(=O)c2c(C)cc(O)c([C@@H]3O[C@H](CO)[C@@H](O)[C@H](O)[C@H]3O)c2o1 [aloesin] |  |  |  | inferior to silver |  |  | 
silver | 7.5 µg/mL |  |  |  | 5 fold log reduction | 5,266 | 
zinc pyrithione |  |  | 151 | better than silver |  |  | 1 (>51)
